Measured values: US12351580B2, “NLRP3 modulators” (Innate Tumor Immunity, Inc., priority 2017, dated 2025)
pEC50: −log10 of the molar value. Where a name gives a salt, the structure may show the parent alone.

How the values were obtained:
[1] = target: T1, TLR8 (Homo sapiens, UniProt Q9NR97); experiment: In vitro human TLR8 binding reporter assay (HEK-Blue, NF-kB/AP1-inducible SEAP); type: cell-based; details: activity range symbols
T1 construct: host or cells: HEK-Blue cells (human HEK) co-expressing TLR8 and an NF-kB/AP1-inducible SEAP reporter
T1 sequence (Q9NR97 27-1041): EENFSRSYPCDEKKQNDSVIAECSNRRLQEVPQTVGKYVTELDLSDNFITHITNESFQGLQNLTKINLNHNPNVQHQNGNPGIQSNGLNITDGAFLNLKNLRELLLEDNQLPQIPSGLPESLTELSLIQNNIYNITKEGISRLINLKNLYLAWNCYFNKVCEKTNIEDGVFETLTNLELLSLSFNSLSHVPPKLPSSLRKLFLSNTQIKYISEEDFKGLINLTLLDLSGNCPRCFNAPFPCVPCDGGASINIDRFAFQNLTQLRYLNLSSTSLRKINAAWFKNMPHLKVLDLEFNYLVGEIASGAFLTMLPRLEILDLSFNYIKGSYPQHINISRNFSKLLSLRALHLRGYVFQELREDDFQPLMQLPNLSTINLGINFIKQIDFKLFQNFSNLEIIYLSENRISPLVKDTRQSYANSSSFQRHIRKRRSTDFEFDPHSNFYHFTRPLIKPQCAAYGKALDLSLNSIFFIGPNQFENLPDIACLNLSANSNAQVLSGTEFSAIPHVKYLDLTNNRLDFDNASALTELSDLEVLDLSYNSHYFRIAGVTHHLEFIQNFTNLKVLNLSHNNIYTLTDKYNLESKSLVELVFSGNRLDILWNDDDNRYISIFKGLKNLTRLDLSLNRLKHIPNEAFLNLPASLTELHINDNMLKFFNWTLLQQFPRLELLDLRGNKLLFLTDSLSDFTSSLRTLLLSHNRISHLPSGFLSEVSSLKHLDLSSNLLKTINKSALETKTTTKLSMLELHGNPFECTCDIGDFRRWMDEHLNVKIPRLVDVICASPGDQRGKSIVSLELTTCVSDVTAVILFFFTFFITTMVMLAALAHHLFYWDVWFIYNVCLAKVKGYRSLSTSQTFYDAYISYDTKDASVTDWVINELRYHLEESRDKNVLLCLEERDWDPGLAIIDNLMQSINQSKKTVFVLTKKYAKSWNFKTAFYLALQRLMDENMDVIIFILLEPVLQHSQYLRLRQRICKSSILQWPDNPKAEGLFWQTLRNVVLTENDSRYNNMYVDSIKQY
Summary of the method: (§1)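 Reporter cells are plated at 15,000 per well and rested 24 h. Next day, test compounds or DMSO are dispensed, followed by 18 h incubation at 37 °C, 5% CO2.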

[2] = target: T2, TLR7 (Homo sapiens, UniProt Q9NYK1); experiment: In vitro human TLR7 binding reporter assay (HEK-Blue, NF-kB/AP1-inducible SEAP); type: cell-based; details: activity range symbols
T2 construct: host or cells: HEK-Blue cells (human HEK) co-expressing TLR7 and an NF-kB/AP1-inducible SEAP reporter
T2 sequence (Q9NYK1 27-1049): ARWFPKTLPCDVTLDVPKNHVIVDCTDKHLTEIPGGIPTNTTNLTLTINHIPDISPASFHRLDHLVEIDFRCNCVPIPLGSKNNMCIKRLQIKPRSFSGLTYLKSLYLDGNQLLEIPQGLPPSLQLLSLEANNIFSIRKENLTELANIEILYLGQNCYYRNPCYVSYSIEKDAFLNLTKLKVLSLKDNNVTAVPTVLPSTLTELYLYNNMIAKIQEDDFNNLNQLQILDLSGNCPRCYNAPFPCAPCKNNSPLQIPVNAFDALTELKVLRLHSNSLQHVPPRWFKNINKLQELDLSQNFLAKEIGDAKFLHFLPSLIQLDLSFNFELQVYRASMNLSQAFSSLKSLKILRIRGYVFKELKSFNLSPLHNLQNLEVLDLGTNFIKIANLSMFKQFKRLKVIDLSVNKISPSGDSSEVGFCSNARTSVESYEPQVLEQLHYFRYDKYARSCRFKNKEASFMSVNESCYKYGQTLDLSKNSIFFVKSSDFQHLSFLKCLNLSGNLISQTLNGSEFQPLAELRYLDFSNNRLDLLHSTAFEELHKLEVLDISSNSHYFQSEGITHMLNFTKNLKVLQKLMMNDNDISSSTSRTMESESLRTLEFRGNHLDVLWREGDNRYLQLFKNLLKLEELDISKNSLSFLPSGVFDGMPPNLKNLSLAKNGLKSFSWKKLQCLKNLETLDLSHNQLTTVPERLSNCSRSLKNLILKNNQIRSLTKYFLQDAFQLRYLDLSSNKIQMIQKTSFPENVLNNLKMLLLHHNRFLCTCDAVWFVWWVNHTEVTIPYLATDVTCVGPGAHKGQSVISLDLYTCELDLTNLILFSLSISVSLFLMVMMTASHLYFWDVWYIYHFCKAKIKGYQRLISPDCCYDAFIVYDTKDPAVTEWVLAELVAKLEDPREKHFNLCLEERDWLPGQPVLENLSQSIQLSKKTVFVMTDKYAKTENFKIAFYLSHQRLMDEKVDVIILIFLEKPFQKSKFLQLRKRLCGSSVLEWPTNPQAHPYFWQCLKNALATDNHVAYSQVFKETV
Summary of the method: as §1

Row | SMILES | pEC50 [1] | pEC50 [2]
1 | CCNCc1nc2c(N)nc3cc(-c4cc[nH]n4)ccc3c2[nH]1 [Compound 101, 2-[(Ethylamino)methyl]-7-(1H-pyrazol-3-yl)-1H-imidazo[4,5-c]quinolin-4-amine hydrochloride] | < 4.00 | < 4.00
2 | CC(=O)N(C)Cc1nc2c(N)nc3cc(-n4cccn4)ccc3c2[nH]1 [Compound 102, N-((4-Amino-7-(1H-pyrazol-1-yl)-1H-imidazo[4,5-c]quinolin-2-yl)methyl)-N-methylacetamide] | < 4.00 | < 4.00
3 | CN(Cc1nc2c(N)nc3cc(-n4cccn4)ccc3c2[nH]1)S(C)(=O)=O [Compound 119] | < 4.00 | < 4.00
4 | CN(Cc1nc2c(N)nc3cc(-c4cc[nH]n4)ccc3c2[nH]1)C(=O)C1CC1 [Compound 120] | < 4.00 | < 4.00
5 | CCN(Cc1nc2c(N)nc3cc(-c4cc[nH]n4)ccc3c2n1C)C(C)=O [Compound 121] | < 4.00 | < 4.00
6 | CCC(=O)N(C)Cc1nc2c(N)nc3cc(-c4cc[nH]n4)ccc3c2[nH]1 [Compound 122] | < 4.00 | < 4.00
7 | CCN(Cc1nc2c(N)nc3cc(-c4cc[nH]n4)ccc3c2[nH]1)S(C)(=O)=O [Compound 124] | < 4.00 | < 4.00
8 | CCC(=O)N(CC)Cc1nc2c(N)nc3cc(-c4cc[nH]n4)ccc3c2[nH]1 [Compound 125] | < 4.00 | < 4.00
9 | CCN(Cc1nc2c(N)nc3cc(-c4cc[nH]n4)ccc3c2[nH]1)C(=O)NC [Compound 128] | < 4.00 | < 4.00
10 | CC(=O)N(C)Cc1nc2c(N)nc3cc(-c4cc[nH]n4)ccc3c2[nH]1 [Compound 129] | < 4.00 | < 4.00
11 | CCN(Cc1nc2c(N)nc3cc(-n4cccn4)ccc3c2[nH]1)C(N)=O [Compound 130] | < 4.00 | < 4.00
12 | NCc1nc2c(N)nc3cc(-c4cc[nH]n4)ccc3c2[nH]1 [Compound 131] | < 4.00 | < 4.00
13 | CCN(Cc1nc2c(N)nc3cc(-n4nccn4)ccc3c2[nH]1)C(C)=O [Compound 132] | < 4.00 | < 4.00
14 | CC(c1nc2c(N)nc3cc(-c4cccnc4)ccc3c2[nH]1)N1CCCC1=O (stereo not shown) [Compound 138] | < 4.00 | 4.00 to 4.70
15 | CC(=O)N(Cc1nc2c(N)nc3cc(-c4cc[nH]n4)ccc3c2[nH]1)C(C)C [Compound 140] | < 4.00 | < 4.00
16 | Nc1nc2ccc(Cl)cc2c2[nH]c(CN3CCCC3=O)nc12 [Compound 141] | < 4.00 | < 4.00
17 | CC(C)(C)OC(=O)NCc1nc2c(N)nc3cc(-c4cc[nH]n4)ccc3c2[nH]1 [Compound 142] | < 4.00 | < 4.00
